Experiments:
Experiment in all cases: radiolabelled acetyl transfer, scintillation counting
Type in all cases: biochemical
Conditions in all cases: 0.1 mM 14C-acetyl-CoA, 50 mM HEPES pH 7.0, 37 C, 4 hr
PtrXOAT4 = target: T1, PtrXOAT4 (Populus trichocarpa, UniProt A0A2R4P4M0)
T1 construct: gene XOAT4; lumenal catalytic domain 37-428, transmembrane region removed; Igkappa leader, C-terminal c-myc and His6; secreted by HEK293F, nickel-purified

PtrXOAT10 = target: T2, PtrXOAT10 (Populus trichocarpa, UniProt A0A2R4P4N0)
T2 construct: gene XOAT10; lumenal catalytic domain 55-438, transmembrane region removed; Igkappa leader, C-terminal c-myc and His6; secreted by HEK293F, nickel-purified
T2 sequence (A0A2R4P4N0 entry or part of it): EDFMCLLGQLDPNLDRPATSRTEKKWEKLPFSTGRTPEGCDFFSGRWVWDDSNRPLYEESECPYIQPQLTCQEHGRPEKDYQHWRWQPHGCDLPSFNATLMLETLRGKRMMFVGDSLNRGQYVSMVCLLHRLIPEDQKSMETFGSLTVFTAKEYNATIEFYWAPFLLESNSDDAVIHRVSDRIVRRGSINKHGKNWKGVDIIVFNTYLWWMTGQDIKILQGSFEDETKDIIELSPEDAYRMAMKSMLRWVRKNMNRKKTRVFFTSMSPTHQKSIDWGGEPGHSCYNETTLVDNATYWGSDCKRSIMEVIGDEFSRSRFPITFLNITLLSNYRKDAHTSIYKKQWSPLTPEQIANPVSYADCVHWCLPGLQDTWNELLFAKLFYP

PtrXOAT8 = target: T3, PtrXOAT8 (Populus trichocarpa, UniProt A0A2R4P4N1)
T3 construct: gene XOAT8; lumenal catalytic domain 33-415, transmembrane region removed; Igkappa leader, C-terminal c-myc and His6; secreted by HEK293F, nickel-purified
T3 sequence (A0A2R4P4N1 entry or part of it): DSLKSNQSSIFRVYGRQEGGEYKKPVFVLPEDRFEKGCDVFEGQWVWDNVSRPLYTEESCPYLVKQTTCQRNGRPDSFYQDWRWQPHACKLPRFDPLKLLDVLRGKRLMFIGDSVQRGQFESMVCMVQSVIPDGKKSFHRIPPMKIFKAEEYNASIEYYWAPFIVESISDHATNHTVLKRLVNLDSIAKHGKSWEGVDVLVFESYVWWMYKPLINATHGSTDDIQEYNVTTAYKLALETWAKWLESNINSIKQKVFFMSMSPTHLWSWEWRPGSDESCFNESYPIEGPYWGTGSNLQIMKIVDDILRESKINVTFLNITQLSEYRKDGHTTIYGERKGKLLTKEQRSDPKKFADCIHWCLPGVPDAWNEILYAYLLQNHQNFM

PtrXOAT9 = target: T4, PtrXOAT9 (Populus trichocarpa, UniProt A0A2K1ZDC4)
T4 construct: gene XOAT9; lumenal catalytic domain 52-437, transmembrane region removed; Igkappa leader, C-terminal c-myc and His6; secreted by HEK293F, nickel-purified
T4 sequence (A0A2K1ZDC4 entry or part of it): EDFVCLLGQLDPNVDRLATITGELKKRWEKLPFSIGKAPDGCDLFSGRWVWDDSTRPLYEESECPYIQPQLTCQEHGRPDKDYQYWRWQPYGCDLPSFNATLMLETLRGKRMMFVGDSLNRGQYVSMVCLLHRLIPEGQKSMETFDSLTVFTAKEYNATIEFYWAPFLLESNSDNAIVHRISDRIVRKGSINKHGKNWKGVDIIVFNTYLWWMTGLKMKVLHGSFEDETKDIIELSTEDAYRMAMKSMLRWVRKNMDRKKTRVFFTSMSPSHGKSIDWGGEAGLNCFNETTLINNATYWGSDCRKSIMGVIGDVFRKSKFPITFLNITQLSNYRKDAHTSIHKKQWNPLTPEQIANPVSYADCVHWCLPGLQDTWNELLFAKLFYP

PtrXOAT6 = target: T5, PtrXOAT6 (Populus trichocarpa, UniProt A0A2R4P4M4)
T5 construct: gene XOAT6; lumenal catalytic domain 36-446, transmembrane region removed; Igkappa leader, C-terminal c-myc and His6; secreted by HEK293F, nickel-purified
T5 sequence (A0A2R4P4M4 entry or part of it): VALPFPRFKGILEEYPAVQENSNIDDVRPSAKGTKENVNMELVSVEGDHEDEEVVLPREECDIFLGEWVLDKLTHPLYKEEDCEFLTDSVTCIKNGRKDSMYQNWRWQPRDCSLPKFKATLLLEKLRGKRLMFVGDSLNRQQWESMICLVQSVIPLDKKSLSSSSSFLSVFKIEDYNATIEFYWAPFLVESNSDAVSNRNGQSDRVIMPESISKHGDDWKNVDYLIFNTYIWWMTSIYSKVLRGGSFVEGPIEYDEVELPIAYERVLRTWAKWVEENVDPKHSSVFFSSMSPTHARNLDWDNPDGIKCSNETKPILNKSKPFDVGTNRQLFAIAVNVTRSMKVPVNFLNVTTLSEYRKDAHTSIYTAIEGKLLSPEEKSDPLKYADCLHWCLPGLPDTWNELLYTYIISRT

PtrXOAT5 = target: T6, PtrXOAT5 (Populus trichocarpa, UniProt A0A2R4P4M8)
T6 construct: gene XOAT5; lumenal catalytic domain 33-470, transmembrane region removed; Igkappa leader, C-terminal c-myc and His6; secreted by HEK293F, nickel-purified
T6 sequence (A0A2R4P4M8 entry or part of it): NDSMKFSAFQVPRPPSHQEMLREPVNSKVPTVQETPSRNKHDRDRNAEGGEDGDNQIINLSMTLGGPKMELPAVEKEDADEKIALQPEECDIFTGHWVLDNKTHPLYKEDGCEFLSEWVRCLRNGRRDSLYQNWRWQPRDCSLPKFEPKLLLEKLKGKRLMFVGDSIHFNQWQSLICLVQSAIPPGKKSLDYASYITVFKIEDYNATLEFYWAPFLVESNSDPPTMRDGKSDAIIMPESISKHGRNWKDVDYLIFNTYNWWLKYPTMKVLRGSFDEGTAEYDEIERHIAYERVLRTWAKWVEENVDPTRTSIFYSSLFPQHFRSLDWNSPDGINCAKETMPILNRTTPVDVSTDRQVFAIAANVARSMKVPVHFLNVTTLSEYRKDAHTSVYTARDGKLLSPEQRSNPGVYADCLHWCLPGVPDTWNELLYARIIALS

PtrXOAT7 = target: T7, PtrXOAT7 (Populus trichocarpa, UniProt B9IGB9)
T7 construct: gene XOAT7; lumenal catalytic domain 38-426, transmembrane region removed; Igkappa leader, C-terminal c-myc and His6; secreted by HEK293F, nickel-purified
T7 sequence (B9IGB9 entry or part of it): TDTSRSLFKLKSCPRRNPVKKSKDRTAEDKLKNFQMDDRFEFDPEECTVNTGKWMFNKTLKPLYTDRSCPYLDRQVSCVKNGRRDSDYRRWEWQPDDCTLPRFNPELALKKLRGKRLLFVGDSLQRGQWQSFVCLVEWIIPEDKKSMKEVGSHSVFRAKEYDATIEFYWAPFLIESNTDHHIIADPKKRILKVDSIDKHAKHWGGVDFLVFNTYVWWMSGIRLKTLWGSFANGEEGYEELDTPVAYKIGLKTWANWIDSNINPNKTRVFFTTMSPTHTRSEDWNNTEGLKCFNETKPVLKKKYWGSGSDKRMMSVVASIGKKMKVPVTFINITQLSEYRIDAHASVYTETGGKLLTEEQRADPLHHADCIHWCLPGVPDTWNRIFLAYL

T1 sequence (A0A2R4P4M0 entry or part of it): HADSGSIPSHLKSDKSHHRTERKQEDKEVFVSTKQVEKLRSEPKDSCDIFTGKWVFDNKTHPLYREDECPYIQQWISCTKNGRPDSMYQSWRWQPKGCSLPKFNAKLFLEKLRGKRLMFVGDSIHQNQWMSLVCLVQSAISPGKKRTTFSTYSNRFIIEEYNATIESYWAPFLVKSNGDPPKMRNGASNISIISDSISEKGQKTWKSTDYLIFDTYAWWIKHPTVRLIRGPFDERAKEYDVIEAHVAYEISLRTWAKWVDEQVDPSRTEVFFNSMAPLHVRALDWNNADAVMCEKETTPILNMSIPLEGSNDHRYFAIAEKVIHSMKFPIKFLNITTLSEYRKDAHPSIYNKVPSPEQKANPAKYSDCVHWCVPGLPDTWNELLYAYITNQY

OC1OC[C@@H](O[C@@H]2OC[C@@H](O[C@@H]3OC[C@@H](O[C@@H]4OC[C@@H](O[C@@H]5OC[C@@H](O[C@@H]6OC[C@@H](O)[C@H](O)[C@H]6O)[C@H](O)[C@H]5O)[C@H](O)[C@H]4O)[C@H](O)[C@H]3O)[C@H](O)[C@H]2O)[C@H](O)[C@H]1O (stereo partly shown) [Xyl6, xylohexaose]
radiolabelled acetyl transfer, scintillation counting (PtrXOAT4): PtrXOAT4 to PtrXOAT10 had a low level of activity | radiolabelled acetyl transfer, scintillation counting (PtrXOAT10): PtrXOAT4 to PtrXOAT10 had a low level of activity | radiolabelled acetyl transfer, scintillation counting (PtrXOAT8): PtrXOAT4 to PtrXOAT10 had a low level of activity | radiolabelled acetyl transfer, scintillation counting (PtrXOAT9): PtrXOAT4 to PtrXOAT10 had a low level of activity | radiolabelled acetyl transfer, scintillation counting (PtrXOAT6): PtrXOAT4 to PtrXOAT10 had a low level of activity | radiolabelled acetyl transfer, scintillation counting (PtrXOAT5): PtrXOAT4 to PtrXOAT10 had a low level of activity | radiolabelled acetyl transfer, scintillation counting (PtrXOAT7): PtrXOAT4 to PtrXOAT10 had a low level of activity

— paper PMC5884507, “A group of Populus trichocarpa DUF231 proteins exhibit differential O-acetyltransferase activities toward xylan” (PLoS ONE, 2018)
